Experimental data published in patent US20200352905A1, “6-(2,4-DICHLOROPHENYL)-5-[4-[(3S)-1-(3-FLUOROPROPYL)PYRROLIDIN-3-YL]OXYPHENYL]-8,9-DIHYDRO-7H-BENZO[7]ANNULENE-2-CARBOXYLIC ACID FOR USE IN METASTATIC OR ADVANCED BREAST CANCER PATIENTS” (SANOFI, priority 2019, published 2020).
Read-outs that look alike come from different tables or passages of the source.

Experiment: TED14856 Part A: plasma pharmacokinetics of compound (1)
Assay type: in vivo, human
[1] = repeated 20 mg once daily, Cycle1 Day 22, fasted, N=3
[2] = repeated 150 mg once daily, Cycle1 Day 22, fasted, N=2

With `O=C(O)c1ccc2c(c1)CCCC(c1ccc(Cl)cc1Cl)=C2c1ccc(O[C@H]2CCN(CCCF)C2)cc1` [compound (1), 6-(2,4-dichlorophenyl)-5-[4-[(3S)-1-(3-fluoropropyl)pyrrolidin-3-yl]oxyphenyl]-8,9-dihydro-7H-benzo[7]annulene-2-carboxylic acid] the “variability of exposure parameters (average CV)” value (after repeated administrations) was ~45%, the “total variability of exposure parameters (average CV)” value (after single dose administration) was > 60% and the Cmax (female, human, plasma, oral, 20 mg, single 20 mg, Cycle1 Day 1, fasted, N=3, read-out: Cmax (Mean ± SD)) was 187 ± 46.7 ng/mL. For the same compound, the Cmax (female, human, plasma, oral, 150 mg, single 150 mg, Cycle1 Day 1, fasted, N=3, read-out: Cmax (Mean ± SD)) was 1310 ± 1380 ng/mL, the Cmax (female, human, plasma, oral, 200 mg, single 200 mg, Cycle1 Day 1, fasted, N=4, read-out: Cmax (Mean ± SD)) was 1650 ± 1340 ng/mL and the Cmax (female, human, plasma, oral, 400 mg, single 400 mg, Cycle1 Day 1, fasted, N=3, read-out: Cmax (Mean ± SD)) was 4740 ± 2920 ng/mL. The Tmax (female, human, plasma, oral, 20 to 600 mg once a day, fasting, Day 1 and Day 22 Cycle 1, read-out: median time to achieve maximum concentration (tmax)) was ~3 h, the clearance (female, human, plasma, oral, across the 20-600 mg range, read-out: mean apparent systemic clearance) was 233 to 250 mL/min and the Vd (female, human, plasma, oral, across the 20-600 mg range, read-out: mean apparent volume of distribution) was ~120 L. The half-life (female, human, plasma, oral, estimated over 48 hours after a single dose on Day 1, read-out: mean apparent terminal half-life) was ≥ 8 h, the AUC(0-t) (human, plasma, oral, 20 mg, repeated 20 mg once daily, Cycle1 Day 22, fasted, N=3, read-out: AUC0-24 (Geometric Mean)) was 1350 ng·h/mL and the AUC(0-t) (human, plasma, oral, 20 mg, repeated 20 mg once daily, Cycle1 Day 22, fasted, N=3, read-out: AUC0-24 (Mean ± SD)) was 1630 ± 1120 ng·h/mL. For the same compound, the Cmax (human, plasma, oral, 20 mg, repeated 20 mg once daily, Cycle1 Day 22, fasted, N=3, read-out: Cmax (Geometric Mean)) was 203 ng/mL, the Cmax (human, plasma, oral, 20 mg, repeated 20 mg once daily, Cycle1 Day 22, fasted, N=3, read-out: Cmax (Mean ± SD)) was 218 ± 95.3 ng/mL and the Tmax (human, plasma, oral, 20 mg, repeated 20 mg once daily, Cycle1 Day 22, fasted, N=3, read-out: tmax (median)) was 2.17 h. For the same compound, the Vd/F (human, plasma, oral, 20 mg, single 20 mg, Cycle1 Day 1, fasted, N = 1, read-out: Vss/F (Geometric Mean)) was 81.9 L, the Vd/F (human, plasma, oral, 20 mg, single 20 mg, Cycle1 Day 1, fasted, N = 1, read-out: Vss/F (Mean ± SD)) was 81.9 L and the AUC(0-t) (human, plasma, oral, 20 mg, single 20 mg, Cycle1 Day 1, fasted, N=3, read-out: AUC0-24 (Geometric Mean)) was 924 ng·h/mL. It also gave a Cmax (human, plasma, oral, 20 mg, single 20 mg, Cycle1 Day 1, fasted, N=3, read-out: Cmax (Geometric Mean)) of 183 ng/mL, a Tmax (human, plasma, oral, 20 mg, single 20 mg, Cycle1 Day 1, fasted, N=3, read-out: tmax (median)) of 1.52 h and an AUC(0-t) (human, plasma, oral, 150 mg, repeated 150 mg once daily, Cycle1 Day 22, fasted, N=2, read-out: AUC0-24 (Geometric Mean)) of 15000 ng·h/mL. For the same compound, the AUC(0-t) (human, plasma, oral, 150 mg, repeated 150 mg once daily, Cycle1 Day 22, fasted, N=2, read-out: AUC0-24 (Mean ± SD)) was 15900 ng·h/mL, the Cmax (human, plasma, oral, 150 mg, repeated 150 mg once daily, Cycle1 Day 22, fasted, N=2, read-out: Cmax (Geometric Mean)) was 2230 ng/mL and the Cmax (human, plasma, oral, 150 mg, repeated 150 mg once daily, Cycle1 Day 22, fasted, N=2, read-out: Cmax (Mean ± SD)) was 2390 ng/mL. It also gave a Tmax (human, plasma, oral, 150 mg, repeated 150 mg once daily, Cycle1 Day 22, fasted, N=2, read-out: tmax (median)) of 2.97 h, a Vd/F (human, plasma, oral, 150 mg, single 150 mg, Cycle1 Day 1, fasted, N = 1, read-out: Vss/F (Geometric Mean)) of 61.5 L and a Vd/F (human, plasma, oral, 150 mg, single 150 mg, Cycle1 Day 1, fasted, N = 1, read-out: Vss/F (Mean ± SD)) of 61.5 L. For the same compound, the AUC(0-t) (human, plasma, oral, 150 mg, single 150 mg, Cycle1 Day 1, fasted, N=3, read-out: AUC0-24 (Geometric Mean)) was 6860 ng·h/mL, the AUC(0-t) (human, plasma, oral, 150 mg, single 150 mg, Cycle1 Day 1, fasted, N=3, read-out: AUC0-24 (Mean ± SD)) was 9140 ± 8730 ng·h/mL and the Cmax (human, plasma, oral, 150 mg, single 150 mg, Cycle1 Day 1, fasted, N=3, read-out: Cmax (Geometric Mean)) was 884 ng/mL. It also gave a Tmax (human, plasma, oral, 150 mg, single 150 mg, Cycle1 Day 1, fasted, N=3, read-out: tmax (median)) of 3 h, an AUC(0-t) (human, plasma, oral, 200 mg, repeated 200 mg once daily, Cycle1 Day 22, fasted, N=3, read-out: AUC0-24 (Geometric Mean)) of 13400 ng·h/mL and an AUC(0-t) (human, plasma, oral, 200 mg, repeated 200 mg once daily, Cycle1 Day 22, fasted, N=3, read-out: AUC0-24 (Mean ± SD)) of 13900 ± 4380 ng·h/mL. For the same compound, the Cmax (human, plasma, oral, 200 mg, repeated 200 mg once daily, Cycle1 Day 22, fasted, N=3, read-out: Cmax (Geometric Mean)) was 2030 ng/mL, the Cmax (human, plasma, oral, 200 mg, repeated 200 mg once daily, Cycle1 Day 22, fasted, N=3, read-out: Cmax (Mean ± SD)) was 2150 ± 873 ng/mL and the Tmax (human, plasma, oral, 200 mg, repeated 200 mg once daily, Cycle1 Day 22, fasted, N=3, read-out: tmax (median)) was 2.07 h. It also gave an AUC(0-t) (human, plasma, oral, 200 mg, single 200 mg, Cycle1 Day 1, fasted, N=4, read-out: AUC0-24 (Geometric Mean)) of 9760 ng·h/mL, an AUC(0-t) (human, plasma, oral, 200 mg, single 200 mg, Cycle1 Day 1, fasted, N=4, read-out: AUC0-24 (Mean ± SD)) of 13600 ± 13800 ng·h/mL and a Cmax (human, plasma, oral, 200 mg, single 200 mg, Cycle1 Day 1, fasted, N=4, read-out: Cmax (Geometric Mean)) of 1340 ng/mL. For the same compound, the Vd/F (human, plasma, oral, 200 mg, single 200 mg, Cycle1 Day 1, fasted, N=4, read-out: Vss/F (Geometric Mean)) was 173 L, the Vd/F (human, plasma, oral, 200 mg, single 200 mg, Cycle1 Day 1, fasted, N=4, read-out: Vss/F (Mean ± SD)) was 213 ± 127 L and the Tmax (human, plasma, oral, 200 mg, single 200 mg, Cycle1 Day 1, fasted, N=4, read-out: tmax (median)) was 2.98 h. The AUC(0-t) (human, plasma, oral, 400 mg, repeated 400 mg once daily, Cycle1 Day 22, fasted, N=3, read-out: AUC0-24 (Geometric Mean)) was 29500 ng·h/mL, the AUC(0-t) (human, plasma, oral, 400 mg, repeated 400 mg once daily, Cycle1 Day 22, fasted, N=3, read-out: AUC0-24 (Mean ± SD)) was 36800 ± 23500 ng·h/mL and the Cmax (human, plasma, oral, 400 mg, repeated 400 mg once daily, Cycle1 Day 22, fasted, N=3, read-out: Cmax (Geometric Mean)) was 3370 ng/mL. For the same compound, the Cmax (human, plasma, oral, 400 mg, repeated 400 mg once daily, Cycle1 Day 22, fasted, N=3, read-out: Cmax (Mean ± SD)) was 4020 ± 2460 ng/mL, the Tmax (human, plasma, oral, 400 mg, repeated 400 mg once daily, Cycle1 Day 22, fasted, N=3, read-out: tmax (median)) was 2.95 h and the AUC(0-t) (human, plasma, oral, 400 mg, single 400 mg, Cycle1 Day 1, fasted, N=3, read-out: AUC0-24 (Geometric Mean)) was 37600 ng·h/mL. It also gave an AUC(0-t) (human, plasma, oral, 400 mg, single 400 mg, Cycle1 Day 1, fasted, N=3, read-out: AUC0-24 (Mean ± SD)) of 40400 ± 17500 ng·h/mL, a Cmax (human, plasma, oral, 400 mg, single 400 mg, Cycle1 Day 1, fasted, N=3, read-out: Cmax (Geometric Mean)) of 4120 ng/mL and a Vd/F (human, plasma, oral, 400 mg, single 400 mg, Cycle1 Day 1, fasted, N=3, read-out: Vss/F (Geometric Mean)) of 112 L. For the same compound, the Vd/F (human, plasma, oral, 400 mg, single 400 mg, Cycle1 Day 1, fasted, N=3, read-out: Vss/F (Mean ± SD)) was 117 ± 40.6 L, the Tmax (human, plasma, oral, 400 mg, single 400 mg, Cycle1 Day 1, fasted, N=3, read-out: tmax (median)) was 3 h and the AUC(0-t) (human, plasma, oral, 600 mg, repeated 600 mg once daily, Cycle1 Day 22, fasted, N=3, read-out: AUC0-24 (Geometric Mean)) was 41700 ng·h/mL. It also gave an AUC(0-t) (human, plasma, oral, 600 mg, repeated 600 mg once daily, Cycle1 Day 22, fasted, N=3, read-out: AUC0-24 (Mean ± SD)) of 42700 ± 11200 ng·h/mL, a Cmax (human, plasma, oral, 600 mg, repeated 600 mg once daily, Cycle1 Day 22, fasted, N=3, read-out: Cmax (Geometric Mean)) of 5510 ng/mL and a Cmax (human, plasma, oral, 600 mg, repeated 600 mg once daily, Cycle1 Day 22, fasted, N=3, read-out: Cmax (Mean ± SD)) of 5570 ± 962 ng/mL. It also gave a Tmax (human, plasma, oral, 600 mg, repeated 600 mg once daily, Cycle1 Day 22, fasted, N=3, read-out: tmax (median)) of 3 h, a Vd/F (human, plasma, oral, 600 mg, single 600 mg, Cycle1 Day 1, fasted, N = 2, read-out: Vss/F (Geometric Mean)) of 132 L and a Vd/F (human, plasma, oral, 600 mg, single 600 mg, Cycle1 Day 1, fasted, N = 2, read-out: Vss/F (Mean ± SD)) of 137 L. It also gave an AUC(0-t) (human, plasma, oral, 600 mg, single 600 mg, Cycle1 Day 1, fasted, N=3, read-out: AUC0-24 (Geometric Mean)) of 53400 ng·h/mL, an AUC(0-t) (human, plasma, oral, 600 mg, single 600 mg, Cycle1 Day 1, fasted, N=3, read-out: AUC0-24 (Mean ± SD)) of 61100 ± 36300 ng·h/mL and a Cmax (human, plasma, oral, 600 mg, single 600 mg, Cycle1 Day 1, fasted, N=3, read-out: Cmax (Geometric Mean)) of 6160 ng/mL. The Cmax (human, plasma, oral, 600 mg, single 600 mg, Cycle1 Day 1, fasted, N=3, read-out: Cmax (Mean ± SD)) was 7010 ± 4180 ng/mL, the Tmax (human, plasma, oral, 600 mg, single 600 mg, Cycle1 Day 1, fasted, N=3, read-out: tmax (median)) was 3.03 h and the “accumulation on Day 21/22” value (once-daily administrations up to 200 mg) was “moderate accumulation”. For the same compound, the “accumulation on Day 21/22” value (once-daily, doses higher than 200 mg) was “no accumulation”, the “CLss/F (Mean ± SD)” value [1] was 18.0 ± 13.7 L/h and the “Ctrough (Mean ± SD)” value [1] was 8.10 ± 7.16 ng/mL. For the same compound, the “CLss/F (Mean ± SD)” value [2] was 10.6 NC L/hr, the “Ctrough (Geometric Mean)” value [2] was “(115) [NC] ng/mL” and the “Ctrough (Mean ± SD)” value [2] was 126 NC ng/mL. For the same compound, the “CLss/F (Mean ± SD)” value (repeated 200 mg once daily, Cycle1 Day 22, fasted, N=3) was 15.3 ± 4.30 L/h.
